# Assay results published in US8252841B2, “Methods of inhibiting bacterial virulence and compounds relating thereto” (priority 2007, dated 2012).
# Values joined by “and” are separate entries in the source; they are usually repeats but may differ in a detail not shown here. Equal values may be shown once. “Also recorded” adds a separate entry of the source.
# What was measured:
# QseC [1] = biological target: T1, QseC (Escherichia coli O157:H7, UniProt Q8X524); experiment: Binding of tritiated norepinephrine to QseC in liposomes; design: species or system E. coli; conditions: 5 μM tritiated NE
# T1 construct: His (C); made in house; host or cells: E. coli (arabinose-induced, pVS155), nickel column purification
# QseC [2] = biological target: T1, QseC; experiment: QseC autophosphorylation in liposomes; type: biochemical, E. coli
# [3] = tested on: EHEC virulence genes (ler, eae, flhDC, stx2A); type: cell-based, enterohemorrhagic E. coli (EHEC)
# EHEC strain 8624 [4] = experiment: Western blot of EHEC secreted proteins EspA and EspB; type: cell-based, enterohemorrhagic E. coli (EHEC); conditions: 50 μM epinephrine plus 5 nM or 5 pM LED209
# EHEC AE lesion formation = experiment: Fluorescein actin staining (FAS) test, AE lesion formation on HeLa cells; type: cell-based, enterohemorrhagic E. coli (EHEC)
# EHEC strain 8624 [5] = type: cell-based, enterohemorrhagic E. coli (EHEC)
# [6] = tested on: Salmonella typhimurium strain SL1344; type: cell-based
# F. tularensis strain LVS = type: cell-based, Francisella tularensis
# EHEC = tested on: EHEC; design: species or system New Zealand White rabbits; conditions: rabbit, in vivo
# [7] = tested on: β1, β2 and β3 adrenergic receptors; experiment: Live-cell intracellular cAMP (EPAC-based BRET reporter) in HEK293 cells; design: species or system human
# [8] = tested on: S. typhimurium strain SL1344; design: species or system mice (129×1/SvJ); conditions: mouse, in vivo
# sifA virulence gene = type: cell-based, Salmonella typhimurium
# [9] = tested on: F. tularensis SCHU S4 in J774 murine macrophages; type: cell-based, Francisella tularensis
# [10] = tested on: F. tularensis virulence genes; type: cell-based, Francisella tularensis
# [11] = tested on: F. tularensis strain SCHU S4; conditions: mouse, in vivo
# [12] = Toxicology studies in mice; conditions: 20 mg/kg oral gavage daily for 5 days
# [13] = Pharmacokinetic analysis in mice
# [14] = tested on: bacterial cells (strain MCAmp); experiment: Secondary screen with bla::lacZ chromosomal reporter to eliminate toxic compounds and general transcription inhibitors
# [15] = CD-1 female mice, 20, 10 and 5 mg/kg IV bolus
# T1 sequence (Q8X524 whole entry): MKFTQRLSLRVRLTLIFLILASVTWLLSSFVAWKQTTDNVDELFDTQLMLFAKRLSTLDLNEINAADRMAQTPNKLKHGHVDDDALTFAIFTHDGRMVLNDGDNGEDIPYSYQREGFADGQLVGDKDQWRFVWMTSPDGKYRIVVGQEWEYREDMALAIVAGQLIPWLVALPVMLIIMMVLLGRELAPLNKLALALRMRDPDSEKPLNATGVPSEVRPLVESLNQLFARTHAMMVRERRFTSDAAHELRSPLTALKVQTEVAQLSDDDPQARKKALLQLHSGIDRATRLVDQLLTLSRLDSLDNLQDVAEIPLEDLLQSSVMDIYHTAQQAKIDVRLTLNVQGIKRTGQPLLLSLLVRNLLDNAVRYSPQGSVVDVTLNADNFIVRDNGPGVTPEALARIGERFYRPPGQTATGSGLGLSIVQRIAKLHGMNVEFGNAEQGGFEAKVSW
compound,measurement,setting,value
CC(=O)Nc1ccc(S(=O)(=O)Nc2ccccc2)cc1,melting point,,209 to 210 °C
"O=S(=O)(Nc1ccccc1)c1ccc(NC(=S)Nc2ccccc2)cc1 [LED209, N-phenyl-4-[[(phenylamino)thioxomethyl]amino]benzenesulfonamide]",binding of norepinephrine to QseC,QseC [1]; 5 pM LED209,inhibits binding; also recorded: directly antagonized
same,binding of norepinephrine to QseC,QseC [1]; 5 fM LED209,does not
same,QseC autophosphorylation,"QseC [2]; in response to 50 μM epinephrine, 5 pM LED209",inhibited
same,QseC-dependent virulence gene expression in response to AI-3,[3],inhibited
same,QseC-dependent virulence gene expression in response to epinephrine,[3],inhibited
same,expression of the stxAB genes,[3],decreases
same,trigger the EHEC SOS response,[3],does not
same,secretion of EspA and EspB,EHEC strain 8624 [4],inhibited the secretion
same,EHEC AE lesion formation on cultured epithelial cells,EHEC AE lesion formation; 5 pM,abolished
same,AE lesions (pedestals),EHEC AE lesion formation; 5 μM and 5 pM,There are no pedestals
same,EHEC growth,EHEC strain 8624 [5],does not hinder growth; also recorded: does not kill or hinder EHEC growth
same,S. typhimurium growth in vitro,[6],does not hinder growth; also recorded: did not influence
same,F. tularensis growth,F. tularensis strain LVS,does not hinder growth
same,EHEC colonization of the intestine,EHEC,modest (and non-statistically significant) reduction
same,"EHEC colonization, colon",EHEC; 20 mg/kg,only a mild non-statistically significance difference
same,"EHEC colonization, ileum and cecum",EHEC; 20 mg/kg,no differences between treated and untreated animals
same,block of activation by β-adrenergic-specific agonists (cAMP generation),"[7]; 5 μM with dobutamine, terbutaline or BRL37344",nor does it block the activation
same,activation of β adrenergic receptors (cAMP generation),"[7]; 5 μM, no agonist",does not activate any of the 3 classes of β adrenergic receptors
same,interference with adrenergic signaling,[7]; live cell-based assays,does not interfere with mammalian adrenergic signaling; also recorded: not influence signaling
same,reduction of S. typhimurium cfus recovered from spleens and livers,[8],~10 fold
same,survival of infected mice 24 hours after infection,[8],80%
same,survival of infected mice up to day 12,[8],20%
same,expression of the sifA virulence gene,sifA virulence gene,diminished
same,reduction of F. tularensis SCHU-S4 recovered from macrophages,[9],10 fold
same,"expression of F. tularensis virulence genes, including qseC",[10],decreased
same,deaths of mice treated with LED209 alone,"[11]; female, C3H HeN, po, 20 mg/kg",none of the mice treated with LED209 alone died
same,survival of infected mice at 175 hours post-infection,[11],60% and 75%
same,overt toxicity,"[11]; po, 20 mg/kg",no overt toxicity
same,survival of infected mice 9 days post-infection,"[11]; po, 20 mg/kg",80%
same,"pathology of duodenum, colon, liver, kidney, spleen and heart sections",[12],did not reveal any observable pathology
same,mice weights,[12]; vs vehicle,no significant differences
same,organ weights,[12]; vs vehicle,no significant differences in the organ weights
same,AUC versus dose,[13]; [15],increases proportionally with dose
same,linearity of pharmacokinetics,[13]; [15],linear
same,bioavailability,"[13]; female, CD-1, mouse, plasma, oral, 20 mg/kg",~70%
same,oral bioavailability (in words),[13]; mice,orally bioavailable
same,toxicity against bacterial cells,[14],no toxicity against bacterial cells
"Cc1ccc(N(CC2=NCCN2)c2cccc(O)c2)cc1 [phentolamine, reference compound]",binding of norepinephrine to QseC,QseC [1]; 50 μM adrenergic antagonist,inhibited; also recorded: antagonizes this binding
same,QseC autophosphorylation,QseC [2]; adrenergic antagonist,block QseC autophosphorylation
"CC(C)NCC(O)COc1cccc2ccccc12 (centres unmarked) [propranolol, reference compound]",binding of norepinephrine to QseC,QseC [1]; 50 μM adrenergic antagonist,has no effect on QseC
